Legend:
Test in all cases: relative viability (nuclei count vs DMSO), 5 days (fraction); higher = more cells survive
[1] = compound: CC(C)C[C@H](NC(=O)[C@H](CCc1ccccc1)NC(=O)CN1CCOCC1)C(=O)N[C@@H](Cc1ccccc1)C(=O)N[C@@H](CC(C)C)C(=O)[C@@]1(C)CO1 [Carfilzomib] + CS(=O)(=O)CCNCc1ccc(-c2ccc3ncnc(Nc4ccc(OCc5cccc(F)c5)c(Cl)c4)c3c2)o1 [Lapatinib] (partner 2 µM)
Procedure, shortened: (§1)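 Lung cancer cell lines in 1536-well plates were dosed by pin tool the day after seeding, either with one drug alone or with a fixed anchor-drug dose plus five library-drug doses (not always all listed) in √10 steps. After 5 days, cells were fixed and their nuclei stained in one step (final 0.05% Triton X-100, 1% formaldehyde, 1 ug/ml Hoechst), then counted on 4× images. Relative viability is the nuclei count in treated wells divided by that in vehicle wells. Values are medians of duplicate plates.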

[2] = compound: C[C@@H](Oc1cc(-c2cnn(C3CCNCC3)c2)cnc1N)c1c(Cl)ccc(F)c1Cl [Crizotinib] + COc1cccc2cc(-c3nc([C@H]4CC[C@H](C(=O)O)CC4)n4ncnc(N)c34)[nH]c12 [OSI-027] (partner 0.5 µM)
Procedure, shortened: as §1

[3] = compound: C[C@@H](Oc1cc(-c2cnn(C3CCNCC3)c2)cnc1N)c1c(Cl)ccc(F)c1Cl [Crizotinib] + CS(=O)(=O)CCNCc1ccc(-c2ccc3ncnc(Nc4ccc(OCc5cccc(F)c5)c(Cl)c4)c3c2)o1 [Lapatinib] (partner 2 µM)
Procedure, shortened: as §1

[4] = compound: O=C(c1cc(Cc2n[nH]c(=O)c3ccccc23)ccc1F)N1CCN(C(=O)C2CC2)CC1 [Olaparib] + O=C(CCCCCCC(=O)Nc1ccccc1)NO [Vorinostat] (partner 1 µM)
Procedure, shortened: as §1

| Cell Line | relative viability ([1]; first compound 0.001 µM) | relative viability ([1]; first compound 0.003162 µM) | relative viability ([1]; first compound 0.01 µM) | relative viability ([1]; first compound 0.03162 µM) | relative viability ([1]; first compound 0.1 µM) | relative viability ([2]; first compound 0.01 µM) | relative viability ([2]; first compound 0.03162 µM) | relative viability ([2]; first compound 0.1 µM) | relative viability ([2]; first compound 0.3162 µM) | relative viability ([2]; first compound 1 µM) | relative viability ([3]; first compound 0.01 µM) | relative viability ([3]; first compound 0.03162 µM) | relative viability ([3]; first compound 0.1 µM) | relative viability ([3]; first compound 0.3162 µM) | relative viability ([4]; first compound 0.08 µM) | relative viability ([4]; first compound 0.253 µM) | relative viability ([4]; first compound 2.53 µM) | relative viability ([4]; first compound 8 µM) | relative viability ([3]; first compound 1 µM) |
| --- | --- | --- | --- | --- | --- | --- | --- | --- | --- | --- | --- | --- | --- | --- | --- | --- | --- | --- | --- |
| SK-LU-1 | 0.931 | 0.944 | 0.729 | 0.127 | 0.191 | 0.36 | 0.342 | 0.331 | 0.324 | 0.353 | 0.833 | 0.953 | 0.859 | 0.889 | 0.847 | 0.705 | 0.726 | 0.545 | – |
| SK-MES-1 | 0.451 | 0.469 | 0.443 | 0.43 | 0.267 | 0.612 | 0.646 | 0.568 | 0.556 | 0.586 | 0.415 | 0.414 | 0.51 | 0.43 | 1.04 | 0.985 | 1.06 | 0.914 | 0.541 |
| SW 1573 | 1.17 | 1.22 | 1.04 | 1.03 | 0.121 | 0.538 | 0.609 | 0.563 | 0.59 | 0.587 | 1.13 | 1.03 | 0.956 | 1.07 | 1.08 | 0.693 | 0.711 | 0.489 | 1.08 |
| UMC-11 | 0.857 | 1.02 | 0.783 | 0.509 | 0.182 | 0.418 | 0.472 | 0.523 | 0.434 | 0.46 | – | 0.975 | 1.02 | – | 0.392 | 0.324 | 0.365 | 0.208 | 0.668 |
